Measured values taken from patent EP2066677B1, “PYRIDOOXAZEPINE PROGESTERON RECEPTOR MODULATORS” (N.V. Organon, priority 2006, dated 2008).

Tested on: mature cyclic rats
Assay: Ovulation inhibition in rat (in vivo progestagenic activity)
Conditions: 96 h, minimal active dose: level at which average number of ova is reduced by 60% relative to placebo, oral administration for 1 complete cycle (4 days), read-out: MAD
Protocol: Ovulation inhibition after oral administration of the compounds of the invention was studied in mature cyclic rats. Animals were treated with test compound (oral administration) for 1 complete cycle (4 days, from oestrus to pro-oestrus) and the number of ova in the oviduct was microscopically assessed at autopsy in the morning of the next (expected) oestrus. The average number of ova per rat was calculated; the minimal active dose (MAD) is defined as the level at which the average number of ova is reduced by 60% relative to placebo-treated animals.

Row | Compound | minimal effective dose [mg/kg]
1 | N#Cc1cc2c(cc1F)Oc1ccccc1[C@@H]1[C@@H](NC(=O)C(F)(F)F)CCCN21 (single isomer, unassigned) [Example 2, (-)-(cis)-N-(7-cyano-8-fluoro-1,3,4,14b-tetrahydro-2H-dibenzo[b,f]pyrido[1,2-d] [1,4]oxazepin-1-yl)-2,2,2-trifluoroacetamide] | 0.014
2 | CC(=O)N[C@H]1CCCN2c3c(cc(F)c(C#N)c3Cl)Oc3cccc(F)c3[C@H]12 (single isomer, unassigned) [Example 6, (-)-(cis)-N-(6-chloro-7-cyano-8,14-difluoro-1,3,4,14b-tetrahydro-2H-dibenzo[b,f]pyrido[1,2-d][1,4]oxazepin-1-yl)acetamide] | < 0.02
3 | N#Cc1c(F)cc2c(c1Cl)N1CCC[C@H](NC(=O)C(F)(F)F)[C@H]1c1cccc(F)c1O2 (single isomer, unassigned) [Example 7, (-)-(cis)-N-(6-chIoro-7-cyano-8,11-difluoro-1,3,4,14b-tetrahydro-2H-dibenzo[b,f]pyrido[1,2-d][1,4]oxazepin-1-yl)-2,2,2-trifluoroacetamide] | 0.025
4 | C=Cc1cccc2c1N1CCC[C@H](NC(=O)C(F)(F)F)[C@H]1c1ccccc1O2 (single isomer, unassigned) [eutomer of example 54 of WO03/084963, reference compound] | > 4
5 | N#Cc1c(F)cc2c(c1Cl)N1CCC[C@@H](NC(=O)C(F)(F)F)[C@@H]1c1ccccc1O2 [Example 3, (-)-(cis)-N-[6-chloro-7-cyano-8-fluoro-1,3,4,14b-tetrahydro-2H-dibenzo[b,f]pyrido[1,2-d][1,4]oxazepin-1-yl]-2,2,2-trifluoroacetamide] | 0.08
6 | N#Cc1c(F)cc2c(c1C#N)N1CCC[C@@H](NC(=O)C(F)(F)F)[C@@H]1c1ccccc1O2 [Example 4, (-)-(cis)-N-(6,7-dicyano-8-fluoro-1,3,4,14b-tetrahydro-2H-dibenzo[b,f]pyrido [1,2-d][1,4]oxazepin-1-yl)-2,2,2-trifluoroacetamide] | 0.02
7 | N#Cc1c(F)cc2c(c1Cl)N1CCC[C@@H](NC(=O)C(F)(F)F)[C@@H]1c1ccc(F)cc1O2 [Example 5, (-)-(cis)-N-(6-chloro-7-cyano-8,12-difluoro-1,3,4,14b-tetrahydro-2H-dibenzo[b,f]pyrido[1,2-d][1,4]oxazepin-1-yl)-2,2,2-trifluoroacetamide] | ≤ 0.025
8 | N#Cc1cc2c(cc1F)Oc1cccc(F)c1[C@H]1[C@H](NC(=O)C(F)(F)F)CCCN21 [Example 8, (-)-(cis)-N-(7-cyano-8,14-difluoro-1,3,4,14b-tetrahydro-2H-dibenzo[b,f]pyrido [1,2-d][1,4]oxazepin-1-yl)-2,2,2-trifluoroacetamide] | 0.01
9 | N#Cc1c(F)cc2c(c1Cl)N1CCC[C@@H](NC(=O)C(F)(F)F)[C@@H]1c1c(F)cccc1O2 [Example 9, (-)-(cis)-N-(6-chloro-7-cyano-8,14-difluoro-1,3,4,14b-tetrahydro-2H-dibenzo [b,f]pyrido[1,2-d][1,4]oxazepin-1-yl)-2,2,2-trifluoroacetamide] | < 0.02
